Tests used:
[1] = test system: splenocytes from HLA-A*0201 transgenic C57BL/6 mice; experiment: IL-2 ELISPOT of splenocytes restimulated with peptide; format: cell-based, mouse; conditions: for IL-2 ELISPOT, RSV: splenocytes of HLA-Tg B6 mice primed and boosted i.n. with 10^4 pfu RSV-B1; for IL-2 ELISPOT, RSV / IL-2 ELISPOT, rAd-F0: restimulated with 2 µg peptide, representative of two experiments, five mice per group; for IL-2 ELISPOT, rAd-F0: splenocytes of HLA-Tg B6 mice primed and boosted i.n. with 10^7 pfu rAd-F0; for IL-2 level in restimulated splenocytes (ELISPOT, text grading): splenocytes of rAd-F0- or RSV B1-primed and boosted HLA-Tg B6 mice, high = over 100 spots, moderate = over 50 spots
Experimental: (§1) To screen the immunodominance of epitopic peptide in the induction of RSV-F specific Th1/Th2 expression, HLA-A*0201 transgenic C57BL/6 mice were anesthetized with isoflurane and immunized with 1×10^7 pfu/50 µL of rAd-F0 or rAd-LacZ or 1×10^4 live RSV B1 via the intranasal (i.n.) route. Twenty days later, the mice were given booster immunization i.n. with the same dose. After 10 days of boost, mice were sacrificed and splenocytes were isolated for the cytokine ELISPOT assay. For peptide-based vaccination, transgenic mice were immunized subcutaneously (s.c.) with 50 µg of the individual synthetic peptides emulsified in 25 µL of incomplete Freund's adjuvant (IFA) (Sigma-Aldrich) and then boosted after 10 days s.c. with the same dose of the respective peptides mixed with IFA. Mice were sacrificed 7 days after the booster and splenocytes were isolated for in vitro peptide-restimulation. For challenge studies, 10^7 pfu of live RSV-B1 was administered i.n. seven days after the booster immunization with peptide vaccines. Mice were sacrificed on day 4 post-challenge and the lung tissues were collected and subjected to further analysis by flow cytometry, ELISA, CTL assay and immunohistochemistry. Mice body weight was monitored daily.
(§2) […] RBC-free splenocyte suspensions prepared from the individual mice were seeded in individual wells of 96-well filtration plates (Millipore) precoated with capturing monoclonal antibodies for murine IL-2, IL-4 or IFN-γ (0.5 µg/ well) (eBioscience) and blocked with conditioned medium (CM) for 1 hour at room temperature. The splenocytes were added with the individual RSV F 9-mer synthetic peptides (2 µg each) or GLC-9 dissolved in CM (100 µL). The splenocytes added with Con A (10 µg/mL) were used as positive control. Unstimulated splenocytes were used as negative control. The plates were kept in a 37°C incubator equilibrated with 5% CO2 for 48 hours. The individual wells of the ELISPOT plates were washed three times with washing buffer (0.05% tween20 in PBS, PBS-T), and then 0.2 µg of the corresponding biotinylated detection monoclonal antibodies specific for IL-2, IL-4 and IFN-γ were added to detect the respective cytokines. After 2 hours of incubation at room temperature, the plates were washed and 100 µl of streptavidin-alkaline phosphatase (1∶ 250 dilution) was added to the individual wells, and the plates were incubated at room temperature for 45 minutes. Finally, the plates were washed four times with the wash buffer, and 100 µl of AEC (3-amine-9-ethylcarbazole, Sigma-Aldrich) substrate was added to each well and allowed to react for 30 minutes at room temperature in the dark. The plates were then washed with water, air-dried overnight, and the spots per well were scored using the immunospot counting reader (C.T.L. IMMUNOSPOT, CELLULAR TECHNOLOGY LTD). Results were expressed as the number of cytokine-secreting cells per 5×10^5 splenocytes seeded in the initial culture.
(§3) Figure 1 Induction of IFN-γ and IL-2 in splenocytes from RSV F peptide immunized HLA-A*0201 transgenic mice upon secondary recall. Splenocytes harvested on day 30 from HLA-A-Tg B6 mice primed and boosted at 20 days interval intranasally with 10^7 pfu of rAd-F0 (□) or 10^4 pfu of RSV-B1 (▪)were restimulated with 2 µg of the individual RSV F peptide or 10 µg/ml Con A for 5 days in the presence of murine IL-2 . After stimulation, 5×10^5 splenocytes were seeded to anti-IFN-γ (A) or anti-IL-2 (B) capture antibody coated ELISPOT plates for 2 days for ELISPOT assay as described in Materials and Methods. Cytokine-positive immunospots were developed and the results are expressed as the number of immunospots +/−2 standard deviations for each experimental group. Data is representative of results derived from two independent experiments, each with five mice per group.

HLA-A*0201 = target: T1, HLA-A*0201 (Homo sapiens, UniProt P04439, D140Y/D185E/D98H/E176V/E277Q/G131W/G231S/I119V/I121R/I166T/I218V/L300P/L318F/N151K/N90K/P208A/P217A/Q86G/Q94H/R138H/R169H/T345S); experiment: T2 cell-stabilization assay (T2-binding); conditions: for T2-binding Ratio of MFI: T2 cells 5×10^5, peptide 50 µg/mL + β2-microglobulin 5 µg/mL, 28°C 16–18 h, then brefeldin A 10 µg/mL 37°C 3 h, FITC anti-HLA-A2, flow cytometry, MFI relative to negative control HCV C55-74 (set as 1); for binding affinity, MFI higher than the baseline: baseline = negative control HCV C55-74, called modest binding affinity
T1 construct: Human T2 cells (purchased from the American Type Culture Collection, ATCC) (ATCC No. CRL-1992) expressing the HLA-A*0201 gene; endogenous in cells; host or cells: human T2 cells (ATCC CRL-1992)
Experimental: T2 cells (5×10^5) cultured in 96-well U-bottom plates were incubated with the individual 9-mer synthetic peptides (50 µg/mL) and β2-microglobulin (5 µg/mL; Sigma-Aldrich) at 28°C for 16–18 hours. Subsequently, brefeldin A (10 µg/mL) was added and the cells were incubated at 37°C for another 3 hours, then washed and stained with fluorescence isothiocyanate (FITC)-conjugated mouse anti-human HLA-A2 antibody (SeroTec). Peptide-loaded T2 cells were acquired and analyzed on the FACScan flow cytometer using CellQuest software (Becton Dickinson). GLC-9 peptide was used as positive control (PC). The mean fluorescence intensity (MFI) represents the binding affinity of each peptide compared to MFI (set as MFI = 1) obtained from negative control (NC), which is T2 cells loaded with HCV peptide C55-74.
Twenty-five 9-mer synthetic peptides derived from the RSV F glycoprotein sequence presumed to encompass HLA-A*0201 binding motifs were synthesized (Table 1). Each was tested for its ability to bind HLA-A*0201 molecules by T2 cell-based binding assay (data not shown). The relative mean fluorescence intensity (MFI) obtained from the positive control (PC) peptide derived from Epstein-Barr virus capsid protein (GLC-9, a previously defined HLA-A*0201-restricted CTL epitope) was twofold (MFI = 1.96) compared to the baseline MFI = 1 obtained from the negative control (NC) treated with an unrelated peptide HCV C55-74 (a C57BL/6-specific CD4 epitope). […] The remaining peptides had no detectable binding to the HLA-A*0201 molecules. Apparently, the different MFIs generated by binding of RSV F-derived peptides to HLA-A*0201 reflects on the binding specificity of different peptides to a given HLA molecule.

[2] = test system: splenocytes from HLA-A*0201 transgenic C57BL/6 mice; experiment: IFN-γ ELISPOT of splenocytes restimulated with peptide; format: cell-based, mouse; conditions: for IFN-γ ELISPOT, RSV: splenocytes of HLA-Tg B6 mice primed and boosted i.n. with 10^4 pfu RSV-B1; for IFN-γ ELISPOT, RSV / IFN-γ ELISPOT, rAd-F0: restimulated with 2 µg peptide, representative of two experiments, five mice per group; for IFN-γ ELISPOT, rAd-F0: splenocytes of HLA-Tg B6 mice primed and boosted i.n. with 10^7 pfu rAd-F0; for IFN-γ level in restimulated splenocytes (ELISPOT, text grading): splenocytes of rAd-F0- or RSV B1-primed and boosted HLA-Tg B6 mice, high = over 100 spots, moderate = over 50 spots
Experimental: as §1, §2, §3

Substance | IL-2 ELISPOT, RSV [1] | IL-2 ELISPOT, rAd-F0 [1] | IL-2 level in restimulated splenocytes (ELISPOT, text grading) [1] | T2-binding Ratio of MFI (HLA-A*0201) | IFN-γ ELISPOT, RSV [2] | IFN-γ ELISPOT, rAd-F0 [2] | IFN-γ level in restimulated splenocytes (ELISPOT, text grading) [2] | binding affinity, MFI higher than the baseline (HLA-A*0201; T2 cell-based binding assay) [%] | binding to the HLA-A*0201 molecules (in words) (HLA-A*0201; T2 cell-based binding assay) | T2-binding Ratio of MFI (HLA-A*0201; listed as N)
4: HLA-A*0201-restricted 9-mer synthetic peptide from F protein of RSV-B1 strain (ELDKYKNAV) [compound 4] | 51.5 cytokine-secreting cells per 5×10^5 splenocytes | 49.5 cytokine-secreting cells per 5×10^5 splenocytes | over 50 spots | 0.94 | 34.5 cytokine-secreting cells per 5×10^5 splenocytes | 88.5 cytokine-secreting cells per 5×10^5 splenocytes | over 50 spots |  |  | 
5: HLA-A*0201-restricted 9-mer synthetic peptide from F protein of RSV-B1 strain (FMNYTLNNT) [compound 5] | 58.5 cytokine-secreting cells per 5×10^5 splenocytes | 38 cytokine-secreting cells per 5×10^5 splenocytes | over 50 spots | 0.96 | 12.5 cytokine-secreting cells per 5×10^5 splenocytes | 73 cytokine-secreting cells per 5×10^5 splenocytes | over 50 spots |  |  | 
6: HLA-A*0201-restricted 9-mer synthetic peptide from F protein of RSV-B1 strain (FLLGVGSAI) [compound 6] | 32 cytokine-secreting cells per 5×10^5 splenocytes | 29 cytokine-secreting cells per 5×10^5 splenocytes |  | 1.14 | 61.5 cytokine-secreting cells per 5×10^5 splenocytes | 65 cytokine-secreting cells per 5×10^5 splenocytes | over 50 spots | ~10 |  | 
7: HLA-A*0201-restricted 9-mer synthetic peptide from F protein of RSV-B1 strain (HLEGEVNKI) [compound 7] | 33 cytokine-secreting cells per 5×10^5 splenocytes | 68 cytokine-secreting cells per 5×10^5 splenocytes | over 50 spots | 0.83 | 81 cytokine-secreting cells per 5×10^5 splenocytes | 68.5 cytokine-secreting cells per 5×10^5 splenocytes | over 50 spots |  |  | 
8: HLA-A*0201-restricted 9-mer synthetic peptide from F protein of RSV-B1 strain (ALLSTNKAV) [compound 8] | 43 cytokine-secreting cells per 5×10^5 splenocytes | 8.5 cytokine-secreting cells per 5×10^5 splenocytes |  | 1.50 | 86 cytokine-secreting cells per 5×10^5 splenocytes | 36 cytokine-secreting cells per 5×10^5 splenocytes | over 50 spots | ~10 |  | 
9: HLA-A*0201-restricted 9-mer synthetic peptide from F protein of RSV-B1 strain (LLSTNKAVV) [compound 9] | 2 cytokine-secreting cells per 5×10^5 splenocytes | 5 cytokine-secreting cells per 5×10^5 splenocytes |  | 1.53 | 1 cytokine-secreting cells per 5×10^5 splenocytes | 27.5 cytokine-secreting cells per 5×10^5 splenocytes |  |  |  | 
10: HLA-A*0201-restricted 9-mer synthetic peptide from F protein of RSV-B1 strain (STNKAVVSL) [compound 10] | 39.5 cytokine-secreting cells per 5×10^5 splenocytes | 0 cytokine-secreting cells per 5×10^5 splenocytes |  | 0.91 | 9.5 cytokine-secreting cells per 5×10^5 splenocytes | 43 cytokine-secreting cells per 5×10^5 splenocytes |  |  |  | 
11: HLA-A*0201-restricted 9-mer synthetic peptide from F protein of RSV-B1 strain (SLSNGVSVL) [compound 11] | 56.5 cytokine-secreting cells per 5×10^5 splenocytes | 51.5 cytokine-secreting cells per 5×10^5 splenocytes | over 50 spots | 1.06 | 200 cytokine-secreting cells per 5×10^5 splenocytes | 68.5 cytokine-secreting cells per 5×10^5 splenocytes | over 100 spots |  |  | 
12: HLA-A*0201-restricted 9-mer synthetic peptide from F protein of RSV-B1 strain (VLTSKVLDL) [compound 12] | 36 cytokine-secreting cells per 5×10^5 splenocytes | 44 cytokine-secreting cells per 5×10^5 splenocytes |  | 0.99 | 116.5 cytokine-secreting cells per 5×10^5 splenocytes | 95.5 cytokine-secreting cells per 5×10^5 splenocytes | over 100 spots |  |  | 
RPQPRGRRQPIPKARQPEGR [HCV C55-74, reference compound] |  |  |  | 1 |  |  |  |  | no binding | 1.00

Source: paper PMC3183052, “Immunoprotectivity of HLA-A2 CTL Peptides Derived from Respiratory Syncytial Virus Fusion Protein in HLA-A2 Transgenic Mouse” (PLoS ONE, 2011)
